Data: article PMC9820167, “Design and Synthesis of Conformationally Flexible Scaffold as Bitopic Ligands for Potent D3-Selective Antagonists” (International Journal of Molecular Sciences, 2022)

What was measured:
Serotonin 5-HT1D = Serotonin 5-HT1D (Homo sapiens, UniProt P28221); assay: PDSP binding screen
Adrenergic alpha2C = target: T1, Adrenergic alpha2C (Homo sapiens, UniProt P18825); assay: PDSP binding screen
T1 sequence (P18825 1-462): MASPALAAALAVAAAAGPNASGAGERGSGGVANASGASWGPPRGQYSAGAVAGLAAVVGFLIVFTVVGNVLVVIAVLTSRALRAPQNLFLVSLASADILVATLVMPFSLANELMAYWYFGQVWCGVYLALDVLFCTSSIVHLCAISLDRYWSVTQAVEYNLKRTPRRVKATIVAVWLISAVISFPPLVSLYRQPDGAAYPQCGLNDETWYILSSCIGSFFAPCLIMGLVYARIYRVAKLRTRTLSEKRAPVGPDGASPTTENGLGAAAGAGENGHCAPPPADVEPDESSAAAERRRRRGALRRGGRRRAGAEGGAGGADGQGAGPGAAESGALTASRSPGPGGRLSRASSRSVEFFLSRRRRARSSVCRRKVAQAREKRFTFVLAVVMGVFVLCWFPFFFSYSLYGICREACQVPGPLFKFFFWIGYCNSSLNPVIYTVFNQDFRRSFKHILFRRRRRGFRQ

Adrenergic beta2 = Adrenergic beta2 (Homo sapiens, UniProt P07550); assay: PDSP binding screen; conditions: for inhibition at 10 µM: read-out: Ki (nM) or % inhibition at 10 µM: beta2
Adrenergic beta3 = Adrenergic beta3 (Homo sapiens, UniProt P13945); assay: PDSP binding screen; conditions: for inhibition at 10 µM: read-out: Ki (nM) or % inhibition at 10 µM: beta3
Dopamine D3 = Dopamine D3 (Homo sapiens, UniProt P35462); assay: PDSP binding screen
Opioid MOR = Opioid MOR (Homo sapiens, UniProt P35372); assay: PDSP binding screen; conditions: for inhibition at 10 µM: read-out: Ki (nM) or % inhibition at 10 µM: MOR
Muscarinic M2 = target: T2, Muscarinic M2 (Homo sapiens, UniProt P08172); assay: PDSP binding screen; conditions: for inhibition at 10 µM: read-out: Ki (nM) or % inhibition at 10 µM: M2
T2 sequence (P08172 1-466): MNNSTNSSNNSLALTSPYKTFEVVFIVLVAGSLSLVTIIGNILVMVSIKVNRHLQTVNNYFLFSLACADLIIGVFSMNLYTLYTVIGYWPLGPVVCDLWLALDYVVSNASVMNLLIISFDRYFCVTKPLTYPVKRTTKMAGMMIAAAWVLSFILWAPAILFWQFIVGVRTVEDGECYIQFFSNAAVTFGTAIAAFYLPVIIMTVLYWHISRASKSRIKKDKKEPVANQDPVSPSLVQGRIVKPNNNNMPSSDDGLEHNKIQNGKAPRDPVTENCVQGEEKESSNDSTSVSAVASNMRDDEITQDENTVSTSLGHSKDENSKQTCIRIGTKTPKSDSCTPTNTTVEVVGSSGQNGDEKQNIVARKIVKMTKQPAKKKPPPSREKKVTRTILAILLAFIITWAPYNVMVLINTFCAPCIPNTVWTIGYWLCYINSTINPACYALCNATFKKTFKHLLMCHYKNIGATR

Muscarinic M4 = target: T3, Muscarinic M4 (Homo sapiens, UniProt P08173); assay: PDSP binding screen; conditions: for inhibition at 10 µM: read-out: Ki (nM) or % inhibition at 10 µM: M4
T3 sequence (P08173 1-479): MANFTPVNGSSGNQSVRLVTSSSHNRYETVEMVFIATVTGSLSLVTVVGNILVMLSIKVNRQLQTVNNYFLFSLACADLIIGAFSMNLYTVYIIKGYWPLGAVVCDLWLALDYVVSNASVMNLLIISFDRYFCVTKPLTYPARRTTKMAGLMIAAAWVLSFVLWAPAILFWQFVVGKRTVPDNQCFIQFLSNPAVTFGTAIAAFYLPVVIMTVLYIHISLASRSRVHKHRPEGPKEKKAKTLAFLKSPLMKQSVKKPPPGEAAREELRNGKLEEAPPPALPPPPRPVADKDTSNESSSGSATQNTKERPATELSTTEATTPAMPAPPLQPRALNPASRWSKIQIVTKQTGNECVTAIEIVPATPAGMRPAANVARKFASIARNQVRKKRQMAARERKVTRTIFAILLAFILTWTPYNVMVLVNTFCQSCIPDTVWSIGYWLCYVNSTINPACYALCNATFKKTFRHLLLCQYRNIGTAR

GABAA = assay: PDSP binding screen; conditions: HCl salts
[1] = target: Benzodiazepine receptor (PBR) (Rattus norvegicus, UniProt P16257); assay: PDSP binding screen; conditions: for Ki (nM) or % inhibition at 10 µM: Benzodiazepine receptor (PBR): PDSP, HCl salts; for inhibition at 10 µM: read-out: Ki (nM) or % inhibition at 10 µM: Benzodiazepine receptor (PBR)
human D3 receptors = human D3 receptors (Homo sapiens, UniProt P35462); assay: β-arrestin recruitment assay (antagonist mode, competition with dopamine); assay type: cell-based; set-up: expressed in transfected cells; conditions: for Emax: percentage of the maximum inhibition of dopamine at EC80 concentration, read-out: Imax (% Control); for IC50: potency for D3 receptors, CHO-K1 cells, vs 30 nM (EC80) dopamine, mean ± SD, three experiments, read-out: IC50
Experimental: Two different assays were used to evaluate the properties of the analogs described above. The receptor binding affinity was measured by radioligand binding assays using [^125I]IABN with D2 or D3 receptors highly expressed HEK293 cells. The functional activity of the analogs was determined using a β-arrestin recruitment assay. The assay was initially conducted in agonist binding mode to confirm that they function as antagonists at the D3 receptor. Once this efficacy was confirmed, the assay was conducted in antagonist mode to determine the ability of the antagonist to compete with dopamine at the D3 receptor. The results of the antagonist mode assay are reported as IC50 values.
CHO-K1 cells which were overexpressed human D3 receptors were cultured in assaycomplete^TM cell culture kit 107. Cells were seeded at a density of 25,000 cells per well of 96-well plate, and incubated at 5% CO2, 37 °C. Two days later, test compounds were dissolved in DMSO, and diluted with 11-point series in phosphate-buffered saline (PBS). Prepared compounds were added to the cells, and it was incubated for 30 min at 5% CO2, 37 °C. Then, cells were treated with 30 nM (EC80) of dopamine, and the plate was incubated another 90 min. PathHunter^TM detection reagent was added to each well, and then plate was incubated for 80 min at RT in the dark. The chemiluminescent signal was measured by PerkinElmer Enspire plate reader (PerkinElmer, Boston, MA). Data were analyzed by Prism followed by non-linear regression.

Sequence of Opioid MOR (P35372 whole entry): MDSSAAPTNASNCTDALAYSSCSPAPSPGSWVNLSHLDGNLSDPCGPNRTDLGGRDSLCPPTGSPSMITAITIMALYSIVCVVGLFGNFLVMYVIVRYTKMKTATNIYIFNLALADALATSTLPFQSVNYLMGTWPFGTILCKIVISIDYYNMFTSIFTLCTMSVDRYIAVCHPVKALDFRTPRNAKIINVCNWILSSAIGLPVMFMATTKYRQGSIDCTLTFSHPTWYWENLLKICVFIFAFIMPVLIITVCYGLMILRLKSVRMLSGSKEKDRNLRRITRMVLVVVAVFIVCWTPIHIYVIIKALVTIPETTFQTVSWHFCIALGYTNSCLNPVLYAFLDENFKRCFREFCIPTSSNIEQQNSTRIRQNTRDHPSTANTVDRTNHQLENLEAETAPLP
Sequence of Adrenergic beta2 (P07550 whole entry): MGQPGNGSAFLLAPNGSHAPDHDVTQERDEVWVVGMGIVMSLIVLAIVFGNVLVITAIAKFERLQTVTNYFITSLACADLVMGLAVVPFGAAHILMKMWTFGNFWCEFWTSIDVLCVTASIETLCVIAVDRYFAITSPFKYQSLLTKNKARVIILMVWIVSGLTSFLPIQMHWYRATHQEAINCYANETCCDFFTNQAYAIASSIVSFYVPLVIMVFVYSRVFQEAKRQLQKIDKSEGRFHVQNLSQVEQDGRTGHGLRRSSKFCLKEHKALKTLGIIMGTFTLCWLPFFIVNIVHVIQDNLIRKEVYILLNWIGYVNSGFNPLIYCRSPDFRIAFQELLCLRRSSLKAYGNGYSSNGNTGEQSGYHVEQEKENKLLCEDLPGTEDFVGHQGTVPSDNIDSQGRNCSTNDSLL
Sequence of Serotonin 5-HT1D (P28221 whole entry): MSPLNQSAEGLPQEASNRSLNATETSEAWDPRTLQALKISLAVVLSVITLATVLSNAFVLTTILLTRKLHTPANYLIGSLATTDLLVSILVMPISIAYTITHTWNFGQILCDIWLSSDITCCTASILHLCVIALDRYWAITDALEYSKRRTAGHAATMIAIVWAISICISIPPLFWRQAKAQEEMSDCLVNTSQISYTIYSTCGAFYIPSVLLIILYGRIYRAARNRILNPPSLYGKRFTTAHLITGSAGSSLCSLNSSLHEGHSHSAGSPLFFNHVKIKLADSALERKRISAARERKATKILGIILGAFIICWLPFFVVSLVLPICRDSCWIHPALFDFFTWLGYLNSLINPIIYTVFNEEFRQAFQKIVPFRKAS
Sequence of Adrenergic beta3 (P13945 whole entry): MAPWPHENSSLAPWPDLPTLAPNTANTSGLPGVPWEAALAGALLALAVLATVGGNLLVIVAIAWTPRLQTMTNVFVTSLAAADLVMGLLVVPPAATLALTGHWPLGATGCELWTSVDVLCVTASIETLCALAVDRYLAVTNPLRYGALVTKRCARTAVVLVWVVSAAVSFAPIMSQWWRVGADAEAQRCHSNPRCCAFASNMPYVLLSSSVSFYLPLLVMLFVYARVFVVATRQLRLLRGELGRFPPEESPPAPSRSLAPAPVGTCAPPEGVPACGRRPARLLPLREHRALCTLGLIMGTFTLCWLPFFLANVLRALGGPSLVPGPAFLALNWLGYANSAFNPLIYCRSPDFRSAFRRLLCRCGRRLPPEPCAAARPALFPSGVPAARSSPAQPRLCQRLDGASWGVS
Sequence of human D3 receptors (P35462 whole entry): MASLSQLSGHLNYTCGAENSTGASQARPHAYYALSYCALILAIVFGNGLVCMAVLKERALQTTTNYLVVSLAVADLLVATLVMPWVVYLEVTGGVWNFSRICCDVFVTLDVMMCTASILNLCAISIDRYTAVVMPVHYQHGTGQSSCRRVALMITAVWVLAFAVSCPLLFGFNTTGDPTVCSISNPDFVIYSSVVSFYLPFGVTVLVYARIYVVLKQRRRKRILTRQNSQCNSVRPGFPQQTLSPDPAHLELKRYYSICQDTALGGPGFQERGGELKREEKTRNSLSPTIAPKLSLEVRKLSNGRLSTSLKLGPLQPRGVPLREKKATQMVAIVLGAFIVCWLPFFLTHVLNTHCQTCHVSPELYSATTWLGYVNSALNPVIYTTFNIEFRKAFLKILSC
Sequence of Dopamine D3 (P35462 whole entry): as above

| Structure (SMILES) | Ki (Serotonin 5-HT1D) | Ki (Adrenergic alpha2C) | inhibition at 10 µM (Adrenergic beta2) | inhibition at 10 µM (Adrenergic beta3) | Ki (Dopamine D3) | Ki (Opioid MOR) | inhibition at 10 µM (Muscarinic M2) | inhibition at 10 µM (Muscarinic M4) | Ki (nM) or % inhibition at 10 µM: GABAA (GABAA) | Ki [1] | Emax (human D3 receptors) | IC50 (human D3 receptors) | Ki (Adrenergic beta3) | Ki (nM) or % inhibition at 10 µM: Benzodiazepine receptor (PBR) [1] | inhibition at 10 µM (Opioid MOR) | inhibition at 10 µM [1] | inhibition at 10 µM (Serotonin 5-HT1D; read-out: Ki (nM) or % inhibition at 10 µM: 5-HT1D) | Ki (Muscarinic M2) | Ki (Adrenergic beta2) | Ki (Muscarinic M4) |
| --- | --- | --- | --- | --- | --- | --- | --- | --- | --- | --- | --- | --- | --- | --- | --- | --- | --- | --- | --- | --- |
| CCN(CCCNC(=O)c1cc2ccccc2[nH]1)CCNC(=O)c1cc(Br)cc(OC)c1OC [21d, N-(3-((2-(5-Bromo-2,3-dimethoxybenzamido)ethyl)(ethyl)amino)propyl)-1H-indole-2-carboxamide] | 1660 nM | 532 nM | < 50% | < 50% | 0.25 nM | 2410 nM | < 50% | < 50% | N/A (N/A; not active means less than 50% inhibition that was obtained in primary binding assay at 10 µM of the compound) | 1220 nM | 57.7 ± 26.9% | 9.3 ± 12 nM |  |  |  |  |  |  |  |  |
| CCN(CCCNC(=O)c1ccc2ccccc2c1)CCNC(=O)c1cc(Br)cc(OC)c1OC [21a, N-(3-((2-(5-Bromo-2,3-dimethoxybenzamido)ethyl)(ethyl)amino)propyl)-2-naphthamide] | 1200 nM | 195 nM | < 50% |  | 0.19 nM | 1080 nM | < 50% | < 50% | N/A (N/A; not active means less than 50% inhibition that was obtained in primary binding assay at 10 µM of the compound) | 9 nM | 66.1 ± 17.6% | 16.4 ± 7.7 nM | 4.53 µM | relatively high affinity |  |  |  |  |  |  |
| CCN(CCCNC(=O)c1ccsc1)CCNC(=O)c1cc(Br)cc(OC)c1OC [21i, N-(3-((2-(5-Bromo-2,3-dimethoxybenzamido)ethyl)(ethyl)amino)propyl)thiophen-e-3-carboxamide] | 3140 nM | 1290 nM | < 50% |  | 0.28 nM |  | < 50% | < 50% | N/A (N/A; not active means less than 50% inhibition that was obtained in primary binding assay at 10 µM of the compound) |  | 99.6 ± 20.7% | 2.7 ± 0.2 nM | > 10 µM | relatively high affinity | < 50% | < 50% |  |  |  |  |
| CCN(CCCNC(=O)c1cn2ccccc2n1)CCNC(=O)c1cc(Br)cc(OC)c1OC [21e, N-(3-((2-(5-Bromo-2,3-dimethoxybenzamido)ethyl)(ethyl)amino)propyl)imidazo[1,2-a]pyridine-2-carboxamide] |  | 1760 nM | < 50% |  | 0.46 nM |  |  | < 50% | N/A (N/A; not active means less than 50% inhibition that was obtained in primary binding assay at 10 µM of the compound) | 11 nM | 85.4 ± 6% | 4.3 ± 2.5 nM | 5.56 µM | relatively high affinity | < 50% |  | < 50% | 9.44 µM |  |  |
| CCN(CCCNC(=O)c1cc2ccccc2n1C)CCNC(=O)c1cc(Br)cc(OC)c1OC [21j, N-(3-((2-(5-Bromo-2,3-dimethoxybenzamido)ethyl)(ethyl)amino)propyl)-1-methyl-1H-indole-2-carboxamide] | 1930 nM | 183 nM |  |  | 0.34 nM | 2770 nM |  | < 50% | N/A (N/A; not active means less than 50% inhibition that was obtained in primary binding assay at 10 µM of the compound) | 8 nM | 81.5 ± 10.1% | 4.8 ± 0.8 nM | 4.36 µM |  |  |  |  | 2.97 µM | > 10 µM |  |
| CCN(CCCNC(=O)c1ccc(-c2ccsc2)cc1)CCNC(=O)c1cc(Br)cc(OC)c1OC [21g, 5-Bromo-N-(2-(ethyl(3-(4-(thiophen-3-yl)benzamido)propyl)amino)ethyl)-2,3-dimethoxybenzamide] | 1820 nM | 78 nM |  |  | 0.61 nM | 2160 nM | < 50% |  | N/A (N/A; not active means less than 50% inhibition that was obtained in primary binding assay at 10 µM of the compound) | 6 nM | 50.1 ± 20.9% | 36.8 ± 35.7 nM | 2.96 µM | relatively high affinity |  |  |  |  | 0.616 µM | 1090 nM |
| CCCN(CCCNC(=O)c1ccc(-c2cccs2)cc1)CCNC(=O)c1cc(Br)cc(OC)c1OC [20a, 5-Bromo-2,3-dimethoxy-N-(2-(propyl(3-(4-(thiophen-2-yl)benzamido)propyl)amino)ethyl)benzamide] | 449 nM | 113 nM |  |  | 1.32 nM | 3020 nM |  | < 50% | N/A (N/A; not active means less than 50% inhibition that was obtained in primary binding assay at 10 µM of the compound) | 9 nM | 88.1 ± 20.4% | 26.5 ± 12.9 nM | 1.39 µM | relatively high affinity |  |  |  | 4.93 µM | 5.83 µM |  |
| CCN(CCCNC(=O)c1ccc(-c2ccncc2)cc1)CCNC(=O)c1cc(Br)cc(OC)c1OC [21c, 5-Bromo-N-(2-(ethyl(3-(4-(pyridin-4-yl)benzamido)propyl)amino)ethyl)-2,3-dimethoxybenzamide] | 1150 nM | 524 nM | < 50% | < 50% | 0.36 nM |  |  |  | N/A (N/A; not active means less than 50% inhibition that was obtained in primary binding assay at 10 µM of the compound) |  | 78.2 ± 18% | 1.3 ± 1 nM |  |  | < 50% | < 50% |  | 1.66 µM |  | 930 nM |
